In patent publication US20100146643A1, “RAPID IN VIVO MODEL FOR ANGIOGENESIS” (ANTICANCER, INC, priority 2006, published 2010):

Assays:
[1] = tested on: MIA PaCa-2 human pancreatic cancer; details: orthotopically transplanted MIA PaCa-2-RFP, ND-GFP transgenic nude mice; cited from earlier work
[2] = tested on: XPA-1-RFP human pancreatic cancer; details: liver metastasis of XPA-1-RFP, ND-GFP transgenic nude mice; cited from earlier work
[3] = tested on: nascent blood vessels in bFGF-containing Gelfoam; assay: Gelfoam subcutaneous implant angiogenesis model in ND-GFP transgenic nude mice; format: in vivo, mouse
Method: Transgenic C57/B6 nude mice that produce green fluorescent protein (GFP) in endothelial cells were used. These transgenic mice (6-8 weeks old) were anesthetized with tribromoethanol. Gelfoam® (Pharmacia & Upjohn company, Kalamazoo, Mich.) blocks (5×5 mm) were either treated with 300 ng basic fibroblast growth factor (bFGF) (Chemicon, Temecula, Calif.) in 75 μl RPMI 1640 medium (Cellgro, Herndon, Va.) or not treated. The Gelfoam® blocks were transplanted into the subcutis on both flanks of the transgenic mice, a treated block on one flank and an untreated block on the other. One group of mice was given daily ip injections of 5 μg/g of doxorubicin and another group was given 0.9% NaCl solution (vehicle control) at days 0, 1, and 2 after transplantation of Gelfoam®. Skin flaps were made at day 7 under anesthesia. Angiogenesis was quantified by measuring the length of fluorescent nascent blood vessels in the skin flap by in vivo fluorescence microscopy imaging.
A Leica fluorescence stereo microscope model LZ12 equipped with a mercury lamp and a 50-W power supply was used. Selective excitation of GFP was produced through a D425/60 band-pass filter and a 470 DCXR dichroic mirror. Emitted fluorescence was collected through a long-pass filter (GG475; Chroma Technology, Brattleboro, Vt.) on a Hamamatsu C5810 3-chip cooled color charge-coupled device camera (Hamamatsu Photonics, Bridgewater, N.J.). Images were processed for contrast and brightness and analyzed with the use of IMAGE PRO PLUS 3.1 software (Media Cybernetics, Silver Spring, Md.). High-resolution images of 1024×724 pixels were captured directly on an IBM PC or continuously through video output on a high-resolution Sony VCR (model SLVR1000; Sony, Tokyo).
The experimental data are expressed as the mean ±SD. Statistical analysis was performed using the two-tailed Student's t test.

[4] = tested on: B16F10-RFP murine melanoma; details: ND-GFP mice transplanted with B16F10-RFP; cited from earlier work
[5] = Gelfoam containing 300 ng bFGF, mice given 0.9% NaCl, day 7

In the case of `Nc1ccn([C@@H]2O[C@H](CO)[C@@H](O)C2(F)F)c(=O)n1` [Gemcitabine], the “mean nascent blood vessel density in the tumor” value [1] is given as “significantly decreased”, the tumor volume [1] is given as “decreased tumor volume” and the “mean nascent blood vessel density in the liver metastases” value [2] is given as “significantly decreased”.
With `COc1cccc2c1C(=O)c1c(O)c3c(c(O)c1C2=O)C[C@@](O)(C(=O)CO)C[C@@H]3O[C@H]1C[C@H](N)[C@H](O)[C@H](C)O1` [doxorubicin] the “extent of angiogenesis (mean nascent blood vessel length, FIG. 4) in bFGF-treated Gelfoam” value ([3]; doxorubicin 5 μg/g ip at days 0, 1, 2, day 7, compared with untreated Gelfoam in NaCl-treated mice) was “reduced below that of untreated Gelfoam® in the sodium chloride treated mice”, the “neovasculature in the bFGF-treated foam (FIG. 2c)” value ([3]; doxorubicin 5 μg/g ip at days 0, 1, 2, skin flap at day 7, Gelfoam with 300 ng bFGF) was “greatly diminished neovasculature” and the “angiogenesis in the foam not containing bFGF (FIG. 2d)” value ([3]; doxorubicin 5 μg/g ip at days 0, 1, 2, skin flap at day 7, Gelfoam without bFGF) was “no observable angiogenesis”. For the same compound, the nascent tumor angiogenesis [4] was “inhibit nascent tumor angiogenesis” and the tumor growth [4] was “inhibit”.
In the case of “bFGF: basic fibroblast growth factor (Chemicon), growth factor loaded in Gelfoam to encourage angiogenesis”, the “mean nascent blood vessel length” value [3, 5] is reported as roughly 6 mm/mm^2 and the “neovasculature formed in the bFGF-containing Gelfoam patch (FIG. 2a)” value [3, 5] is reported as “a large complex of neovasculature is formed”.
